Columns and labels:
[1] = test system: NCI-H460 lung cancer cells; test: Cytotoxicity and photocytotoxicity, MTT assay, NCI-H460 in dark or under visible light; type: cell-based, human; conditions: for PI = IC50(dark)/IC50(light): NCI-H460, phototoxicity index
Procedure: FIG. 12A-12G. Plots of cell viability of NCI-H460 lung cancer cells upon 72 h treatment with the iridium(III) porphyrin complexes and cis-platin in dark or under light irradiation (2.8 mW cm^−2 for 1 h).
NCI-H460 lung cancer cells incubated with the complexes were exposed to a low dose of visible light irradiation (2.8 mW cm^−2) for 1 h. […] The cytotoxicity of [Ir^III(oep)Cl(CO)] was also evaluated for comparison.

[2] = Lipophilicity, n-octanol / saline partition; type: physicochemical; conditions: n-octanol / saline solution (0.9% w/v), by amount of iridium
NCI-H460 cells [3] = test: Cell cycle progression by flow cytometry; type: cell-based, human; conditions: 0.1 μM
From the text: (§1) FIGS. 8A-8C. […] (A) Apoptosis/necrosis in NCI-H460 cells as examined by flow cytometry of annexin-V-FITC/propidium iodide-stained cells. (B) Cell cycle progression in NCI-H460 cells as examined by flow cytometry. (C) Inhibition of angiogenesis of MS-1 endothelial cells.
(§2) The other two groups of mice received the same treatment without irradiation as a control.

[4] = test system: NCI-H460 human non-small cell lung cancer xenografts; test: In vivo antitumor activity, intravenous injection, NCI-H460 xenograft; conditions: 3 mg/kg intravenous thrice weekly, 16-day treatment
Procedure: (A) Tumor volume and (B) body weight of mice. Data are expressed as the mean±standard error; *p<0.05.
Nude mice bearing NCI-H460 human non-small cell lung cancer xenografts were administered 102 (3 mg/kg) via intravenous injection thrice weekly.

[5] = test system: peptide ([…]) from thioredoxin (Trx); test: Photoinduced oxidation of Trx model peptide by ESI-MS/MS; type: biochemical; conditions: peptide 20 μM, complex 10 μM, light irradiation 1 h
From the text: A peptide ([sequence]) from thioredoxin (Trx) was employed as a model to investigate the possible oxidative modification sites by electrospray ionization tandem mass spectrometry (ESI-MS/MS).

[6] = test system: NCI-H460 lung cancer cells; test: Cellular ROS generation by DCF fluorescence (H2DCF-DA probe); type: cell-based, human; conditions: 1 μM, 2 h, visible light irradiation
Procedure: (A) Generation of ROS examined by DCF fluorescence measurement in NCI-H460 cells treated with or without iridium(III) porphyrin complexes (1 μM) for 2 h with or without irradiation by visible light.
To examine the relationship between photocytotoxicity and the photosensitizing properties of the complexes, we measured the cellular reactive oxygen species (ROS) generation using the ROS probe H2DCF-DA after treatment of cancer cells with the iridium(III) porphyrin complexes.

[7] = test system: NCI-H460 lung cancer xenografts; conditions: 3.0 mg/kg intratumoral
From the text: FIGS. 9A-9D. […] (A) Tumor volume. (B) Body weight of mice. (C) Tumor weight after the experiment. […] (D) Photo of tumors of each group after treatment for 15 days. Data are expressed as the mean±standard error; **p<0.01.
as §2

MS-1 endothelial cells = test: Inhibition of endothelial cell tube formation (angiogenesis); type: cell-based; conditions: 0.1 μM
From the text: as §1, §2

NCI-H460 cells [8] = test: Subcellular localization by confocal microscopy imaging; conditions: 1 μM, 2 h, NCI-H460, ER-Tracker green
[9] = Singlet oxygen generation quantum yield from 1O2 emission; type: physicochemical; conditions: oxygen-saturated CHCl3, referenced to H2tpp
NCI-H460 cells [10] = test: Apoptosis by annexin-V-FITC/propidium iodide flow cytometry; type: cell-based, human; conditions: 0.1 μM
From the text: as §1, §2

[11] = in CHCl3, reference standard; cited from earlier work
[12] = test system: panel of human cancer cell lines; test: Cytotoxicity towards a panel of human cancer cell lines; conditions: summary of Table 2
HepG2 = test: In vitro cytotoxicity, MTT assay, HepG2; type: cell-based, human; conditions: 72 h incubation
MCF-7 = test: In vitro cytotoxicity, MTT assay, MCF-7; type: cell-based, human; conditions: 72 h incubation

In the case of “[Ir^III(oep)(I^iPr)2](PF6) [Complex 103]”, the “IC50 upon light irradiation, in words” value ([1]; NCI-H460, visible light 2.8 mW cm^−2, 1 h) is reported as “nanomolar”.
With `N.N.[Cl][Pt][Cl]` [Cisplatin] the “PI = IC50(dark)/IC50(light)” value [1] was 0.72 and the “PI = IC50(dark)/IC50(light)” value ([1]; listed as cisplatin) was < 1.
With [Ir^III(oep)Cl(CO)] the “PI = IC50(dark)/IC50(light)” value [1] was >2.5, the IC50 ([1]; dark, MTT assay, 72 h) was > 50 µM and the “Log P” value [2] was 2.38.
For [Ir^III(oep)(IMe)2](OTf) [Complex 102], the G0/G1-population (NCI-H460 cells [3]; dark (increase from 59.6%)) was 66.3%, the “sub-G1 population, visible light irradiation” value (NCI-H460 cells [3]; visible light irradiation) was 96.9% and the “sub-G1 population, before irradiation” value (NCI-H460 cells [3]; without light) was 2.2%. For the same compound, the “Toxicity incl. body weight loss and death” value [4] was “without apparent toxicity”, the Tumor size reduction [4] was 41% and the “Oxidative modification of Trx peptide” value [5] was “undergo oxidative modifications”. For the same compound, the “Elevation in ROS levels” value [6] was 10 fold, the “Tumor weight, photoirradiation group vs dark control group” value ([7]; after 15 days) was “much lower” and the “Changes in body weight” value ([7]; with or without irradiation, 15 days) was “negligible changes in body weight”. For the same compound, the “MS-1 cell tube formation, dark” value (MS-1 endothelial cells; dark) was “moderate inhibition”, the “MS-1 cell tube formation, light irradiation” value (MS-1 endothelial cells; light irradiation) was “completely abrogated” and the “Pearson's correlation coefficient (R) with ER-Tracker” value (NCI-H460 cells [8]) was 0.903. The “Quantum yield of singlet oxygen generation (Φso)” value [9] was 0.88, the “Proportion of cells undergoing apoptotic cell death, without irradiation” value (NCI-H460 cells [10]; dark) was 5.9% and the “Proportion of cells undergoing apoptotic cell death, light irradiation” value (NCI-H460 cells [10]; visible light irradiation) was 81.7%.
In the case of `C1=Cc2nc1c(-c1ccccc1)c1ccc([nH]1)c(-c1ccccc1)c1nc(c(-c3ccccc3)c3ccc([nH]3)c2-c2ccccc2)C=C1` [Complex H2tpp, H2tpp], the “Quantum yield of singlet oxygen generation (Φso), reference” value [11] is given as 0.55.
For `CCC1=C(CC)C2=NC1=Cc1c(CC)c(CC)c3[n]1[Ir+][n]1c(c(CC)c(CC)c1=CC1=NC(=C3)C(CC)=C1CC)=C2.F[B-](F)(F)F.[C-]#[N+]c1ccc(OC)cc1.[C-]#[N+]c1ccc(OC)cc1` [[Ir^III(ope)(CNPhOMe)2](BF4)], the “PI = IC50(dark)/IC50(light)” value [1] was 24.2, the “Cytotoxicity / IC50 in words, panel of human cancer cell lines” value [12] was “reduced cytotoxicity” and the “Log P” value [2] was 2.81. For the same compound, the IC50 (HepG2) was > 100 µM and the IC50 (MCF-7) was > 100 µM.
For [Ir^III(ttp)(IMe)2](ORf) [Complex 101], the “Quantum yield of singlet oxygen generation (Φso)” value [9] was 0.64.
